The subject of data set [1] is Dahl salt-sensitive rats. Kind of data set: Dahl salt-sensitive rat model, 4% NaCl diet: body weight, echocardiography, histology (Example 1). Conditions: 4% NaCl HS diet. The data set is classed as in vivo. How it is done:
To obtain additional insight into the basis for the protective effects seen in response to antimiR-208a, subsequent studies were done using a 4.0% NaCl diet, during which the rats received saline, 5 or 25 mg/kg of antimiR-208a, or 25 mg/kg of antimiR control every 2 weeks.
The LNA-antimiR oligonucleotides were synthesized at miRagen Therapeutics, Inc. as unconjugated and fully phosphorothiolated oligonucleotides perfectly complementary to the 5′ region of the mature miR-208a sequence. The LNA control oligonucleotide consisted of a sequence directed against a C. elegans specific miRNA. Unless otherwise indicated, in vivo delivery of the oligonucleotide chemistries was achieved by low pressure intravenous (i.v.) injections via the tail vein or subcutaneous injections of either adult male C56B16 mice or adult male Dahl Salt-sensitive rats (Harlan, Indianapolis). […] Tissue samples were collected at the indicated timepoints for molecular or histological examination. Dahl rats were maintained on 0.25 NaCl or placed on 4% or 8% NaCl diet at 8 weeks of age (Harlan, Indianapolis).

In data set [2] the test system is plasma miRNAs. Put plainly: Real-time PCR of plasma miRNAs, 4% NaCl diet (Example 1). The data set is classed as in vivo, rat. The text has this:
Detection of miRNAs in plasma during various disease settings is showing increasing diagnostic promise (Cortez M A and Calin G A (2009) Expert Opin Biol Ther. 9, 703-711). To determine whether there is a specific miRNA that correlates with antimiR-208a efficacy, we examined a panel of muscle related miRNAs during HS treatment.
RNA from plasma samples was isolated using Trizol LS Reagent (Invitrogen), using the manufacturer's protocol. Prior to RNA isolation, […] of two different synthetic C. elegans miRNA sequences were added to serve as internal controls for normalization of target miRNAs. The C. elegans sequences used were cel-miR-2 ([…], SEQ ID NO:5), and cel-lin-4 ([…]; SEQ ID NO:6) (Dharmacon). The final RNA pellet was re-suspended in a final volume equal to the initial plasma volume and 5 μl was used for subsequent RT-PCR reactions, as described above.
Background: Quantitative PCR measures a nucleic acid by following its amplification.

Data set [3] concerns miR-208a, Myh6, Myh7. Kind of data set: Cardiac tissue markers by Taqman RT-PCR, 4% NaCl diet (Example 2). The data set is classed as in vivo, rat. Conditions: 25 mg/kg sc every 2 weeks. How it is done: The flowing experimental groups were tested:
Following catheter implant surgery, high-salt diet was initiated. […] Animals were sacrificed 8 weeks after the initial injection.
Tissue RNA was isolated using standard Trizol RNA isolation.

[4] abbreviates: 8 weeks, histological quantification, listed as antimiR-208a.
Where [5] appears, read: 8 weeks after HS diet, vs HS/saline, listed as antimiR-208a.
The mark [6] stands for this setting: listed as antimiR-208a, 25 mg/kg.

“Also recorded” adds a separate entry of the source.

Consider “M-10101: antimiR targeting bases 2 to 17 of mature miR-208a, LNA and DNA linked by phosphorothioate bonds; 5′-CTTTTTGCTCGTCTTA-3′ (SEQ ID NO: 12) (all phosphorothioate, sugars by position and methylation of C not given here; LNA/DNA mixmer; listed as Homo sapiens)”, for which, in data set [1] (setting [4]), the “Cardiomyocyte hypertrophy (cardiomyocyte size)” value was “significant reduction in cardiomyocyte hypertrophy; also recorded: significantly less hypertrophy”; the “Periarteriolar (perivascular) fibrosis, Picrosirius Red staining” value was “reduced periarteriolar fibrosis; also recorded: significantly less hypertrophy and fibrosis”. In addition, the Body weight gain entry in data set [1] (5 or 25 mg/kg every 2 weeks, listed as antimiR-208a) is given as “maintained their increase in weight gain; also recorded: sufficient to maintain weight gain comparable to that in animals on a normal diet”. In data set [1] (setting [5]), the “Isovolumic relaxation time (IVRT), echocardiography” value is “significant dose-dependent reduction; also recorded: significantly improved” and the “Mitral valve early to active filling velocity ratio (MV E/A)” value is listed as “normalization; also recorded: significantly improved”. Moreover, the “Isovolumic relaxation time, time-dependent echocardiography” value in data set [1] (every 2 weeks after HS diet, vs HS/saline, data not shown) is “significant reductions in isovolumic relaxation time”. Moreover, the “Plasma miR-499” value in data set [2] (8 weeks after start of 4% HS diet, 7 weeks after onset of antimiR treatment, listed as antimiR-208a) was “significantly reduced; also recorded: significantly lowers”. The “Plasma miR-423-5p” value in data set [2] (8 weeks after start of 4% HS diet, listed as antimiR-208a) is “reduced; also recorded: decrease”. For the same substance, in data set [2] (Dahl hypertensive rats), the “Plasma miR-1” value is on record as “no response” and the “Plasma miR-208a” value is “no response”. The “Myh7 expression in cardiac tissue” value in data set [3] (listed as AntimiR-208a, 25 mg/kg) was “blunted the hypertension-induced increase in Myh7 expression”. Besides, in data set [3] (setting [6]), the “Myh6 expression in cardiac tissue” value is recorded as “prevented the high-salt diet-induced decrease in Myh6 expression; also recorded: prevents this decrease” and the “Myh7 expression in cardiac tissue” value is given as “reduces this increase”. In addition, the “miR-208a in cardiac tissue” value in data set [3] (vs HS/Saline) is recorded as “greater inhibition of miR-208a”.

Values taken from US20140024700A1, “BLOOD-BORNE MIRNAS AS SURROGATE MARKERS OF DRUG EFFICACY FOR CARDIAC CONDITIONS” (miRagen Therapeutics, Inc., priority 2010, published 2014).
